Results reported in US20260232767A1, “INTERLEUKIN-23 RECEPTOR ANTAGONIST PEPTIDES FOR USE IN THE TREATMENT OF PSORIASIS” (Janssen Pharmaceutica NV, priority 2023, published 2026).
Like-named read-outs stand apart in the source and are kept apart here.

Columns and labels:
scalp psoriasis = experiment: Scalp Specific IGA (ss-IGA), Example 1; type: in vivo, human; conditions: Week 16
Description: The Scalp Specific Investigator Global Assessment (ss-IGA) instrument is used to evaluate the disease severity of scalp psoriasis. The lesions are assessed in terms of the clinical signs of redness, thickness, and scaliness which are scored as: absence of disease (0), very mild disease (1), mild disease (2), moderate disease (3), and severe disease (4).
Clinician-reported outcomes including Psoriasis Area and Severity Index (PASI), Body Surface Area (BSA), Investigator's Global Assessment (IGA), Nail Psoriasis Area and Severity Index (NAPSI), Fingernail Physician's Global Assessment (f-PGA), Static Physician's Global Assessment of Genitalia (s-PGA-G), Physician's Global Assessment of Hands and/or Feet (hf-PGA), and Scalp Specific Investigator Global Assessment (ss-IGA) were obtained at Week 0, 8, and 16. PASI and IGA were also obtained at Weeks 1, 2, 4, and 12, and at Week 20, four weeks after the administration of the tablets has stopped.
Proportion of Patients Achieving scalp-specific (ss)-IGA score 0/1 and ss-IGA score 0 and With at Least a 2-Grade Improvement from baseline at Week 16.

BD-2 = experiment: Serum BD-2 immunoassay; type: in vivo, human; conditions: all treatment groups vs placebo; as early as Week 4
Description: (§1) To evaluate psoriasis relevant systemic biomarkers (Beta-defensin 2 (BD-2), IL-17A, IL-17F, and IL-22), protein concentrations were measured in serum using validated immunoassays. The IL-17A (Catalog #03-0159-00) and IL-17F (Catalog #03-0164-00) assays used are commercially available SMC™-based high sensitivity immunoassays produced by the EMD Millipore Corporation. The manufacturer's protocols were followed and analyzed on the Erenna® instrument platform except for the use of 11 μL Elution Buffer B. While the IL-22 assay is also based on the SMC™ platform and run on the Erenna instrument, the assay was developed internally as a coated plate-based assay. The development and optimization of the BD-2 assay was done on the Meso Scale Discovery on the electrochemiluminescence-based platform, a division of Meso Scale Diagnostics LLC (MSD). For all assays, concentration adjustments were made to values measuring below empirically defined LLOQ or empirically defined ULOQ values. Assay QC verified performance of generated standard curves (average concentration recovery & CV of technical replicates) and control samples (inter-assay plate agreement (CV)).
(§2) Serum levels of psoriasis disease biomarkers BD-2, IL-22, IL-17A, and IL-17F relative to baseline were analyzed in patients who received placebo or the compound of Formula (I) and compared to clinical response. […]

IL-22 = experiment: Serum IL-22 immunoassay; type: in vivo, human; conditions: all treatment groups relative to placebo
Description: as §1, §2

[1] = system: anti-drug antibodies to the IL-23 receptor antagonist peptide; conditions: for Subjects negative for treatment-emergent anti-peptide antibodies, % / Subjects positive for treatment-emergent anti-peptide antibodies, %: through Week 16 or Follow-up Week 20; for Subjects positive for treatment-emergent anti-peptide antibodies at any time, %: through Week 16

Structure (SMILES): CC(=O)NCCCC[C@@H]1NC(=O)[C@H](Cc2c[nH]c3c(C)cccc23)NC(=O)[C@H]([C@@H](C)O)NC(=O)[C@H](CC(N)=O)NC(=O)[C@@H](NC(C)=O)C(C)(C)SSC(C)(C)[C@@H](C(=O)N[C@@H](Cc2ccc(OCCN)cc2)C(=O)N[C@@H](Cc2ccc3ccccc3c2)C(=O)NC2(C(=O)N[C@@H](CCC(=O)O)C(=O)N[C@@H](CC(N)=O)C(=O)N[C@@H](Cc3cccnc3)C(=O)N(C)CC(N)=O)CCOCC2)NC1=O [IL-23 receptor antagonist peptide, Ac-[Pen]*-N-T-[W(7-Me)]-[Lys(Ac)]-[Pen]*-Phe[4-(2-aminoethoxy)]-[2-Nal]-[THP]-E-N-[3-Pal]-Sarc-NH2 (*[Pen]-[Pen]* formdisulfidebond)]
- ss-IGA score 0/1 and ≥2-grade improvement from baseline, % (scalp psoriasis; 25 mg BID, baseline ss-IGA score ≥2, n=32): (65.6) %
- ss-IGA score 0/1 and ≥2-grade improvement from baseline, % (scalp psoriasis; 25 mg QD, baseline ss-IGA score ≥2, n=37): (32.4) %
- ss-IGA score 0/1 and ≥2-grade improvement from baseline, % (scalp psoriasis; 50 mg QD, baseline ss-IGA score ≥2, n=40): 70.0%
- ss-IGA score 0/1 and ≥2-grade improvement from baseline, % (scalp psoriasis; 100 mg BID, baseline ss-IGA score ≥2, n=36): 75.0%
- ss-IGA score 0/1 and ≥2-grade improvement from baseline, % (scalp psoriasis; 100 mg QD, baseline ss-IGA score ≥2, n=40): 67.5%
- Response rate ss-IGA score 0/1 with ≥2-grade improvement from baseline (scalp psoriasis; all doses vs placebo): significantly higher than placebo
- BD-2 serum levels (BD-2): Statistically significant reduction
- IL-22 serum levels (IL-22): statistically significant reduction
- Footnote d group: Baseline titers 1:50, n subjects ([1]; 25 mg BID, N=41): 0
- Peak titer group <50, n subjects ([1]; 25 mg BID, N=41): 0
- Peak titer group >50-<100, n subjects ([1]; 25 mg BID, N=41): 0
- Peak titer group ≥100-<1000, n subjects ([1]; 25 mg BID, N=41): 0
- Peak titer group ≥1000, n subjects ([1]; 25 mg BID, N=41): 0
- Positive at baseline: Baseline titers 1:50, n subjects ([1]; 25 mg BID, N=41): 0
- Treatment-boosted (footnote c): Baseline titers 1:50, n subjects ([1]; 25 mg BID, N=41): 0
- Treatment-emergent: Peak titers 1:50, n subjects ([1]; 25 mg BID, N=41): 0
- Subjects negative for treatment-emergent anti-peptide antibodies, % ([1]; 25 mg BID, N=41): 100%
- Footnote d group: Baseline titers 1:50, n subjects ([1]; 25 mg QD, N=42): 0
- Peak titer group <50, n subjects ([1]; 25 mg QD, N=42): 1
- Peak titer group >50-<100, n subjects ([1]; 25 mg QD, N=42): 0
- Peak titer group ≥100-<1000, n subjects ([1]; 25 mg QD, N=42): 0
- Peak titer group ≥1000, n subjects ([1]; 25 mg QD, N=42): 0
- Positive at baseline: Baseline titers 1:50, n subjects ([1]; 25 mg QD, N=42): 0
- Treatment-boosted (footnote c): Baseline titers 1:50, n subjects ([1]; 25 mg QD, N=42): 0
- Treatment-emergent: Peak titers 1:50, n subjects ([1]; 25 mg QD, N=42): 1
- Subjects positive for treatment-emergent anti-peptide antibodies at any time, % ([1]; 25 mg QD, N=42): (2.4%)
- Subjects negative for treatment-emergent anti-peptide antibodies, % ([1]; 25 mg QD, N=42): 97.6%
- Subjects positive for treatment-emergent anti-peptide antibodies, % ([1]; 25 mg QD, N=42): 2.4%
- Footnote d group: Baseline titers 1:50, n subjects ([1]; 50 mg QD, N=43): 3
- Peak titer group <50, n subjects ([1]; 50 mg QD, N=43): 1
- Peak titer group >50-<100, n subjects ([1]; 50 mg QD, N=43): 0
- Peak titer group ≥100-<1000, n subjects ([1]; 50 mg QD, N=43): 0
- Peak titer group ≥1000, n subjects ([1]; 50 mg QD, N=43): 0
- Positive at baseline: Baseline titers 1:50, n subjects ([1]; 50 mg QD, N=43): 3
- Subjects positive at baseline who were treatment-boosted for antibodies (footnote d: titers did not increase 2-fold), % ([1]; 50 mg QD, N=43): 7.0%
- Subjects positive for anti-peptide antibodies at baseline, % ([1]; 50 mg QD, N=43): 7.0%
- Treatment-boosted (footnote c): Baseline titers 1:50, n subjects ([1]; 50 mg QD, N=43): 0
- Treatment-emergent: Peak titers 1:50, n subjects ([1]; 50 mg QD, N=43): 1
- Subjects positive for treatment-emergent anti-peptide antibodies at any time, % ([1]; 50 mg QD, N=43): (2.3%)
- Subjects negative for treatment-emergent anti-peptide antibodies, % ([1]; 50 mg QD, N=43): 97.7%
- Subjects positive for treatment-emergent anti-peptide antibodies, % ([1]; 50 mg QD, N=43): 2.3%
- Footnote d group: Baseline titers 1:50, n subjects ([1]; 100 mg BID, N=41): 0
- Peak titer group <50, n subjects ([1]; 100 mg BID, N=41): 3
- Peak titer group >50-<100, n subjects ([1]; 100 mg BID, N=41): 0
- Peak titer group ≥100-<1000, n subjects ([1]; 100 mg BID, N=41): 0
- Peak titer group ≥1000, n subjects ([1]; 100 mg BID, N=41): 0
- Positive at baseline: Baseline titers 1:50, n subjects ([1]; 100 mg BID, N=41): 0
- Treatment-boosted (footnote c): Baseline titers 1:50, n subjects ([1]; 100 mg BID, N=41): 0
- Treatment-emergent: Peak titers 1:50, n subjects ([1]; 100 mg BID, N=41): 3
- Subjects positive for treatment-emergent anti-peptide antibodies at any time, % ([1]; 100 mg BID, N=41): (7.3%)
- Subjects negative for treatment-emergent anti-peptide antibodies, % ([1]; 100 mg BID, N=41): 92.7%
- Subjects positive for treatment-emergent anti-peptide antibodies, % ([1]; 100 mg BID, N=41): 7.3%
- Footnote d group: Baseline titers 1:50, n subjects ([1]; 100 mg QD, N=42): 0
- Peak titer group <50, n subjects ([1]; 100 mg QD, N=42): 3
- Peak titer group >50-<100, n subjects ([1]; 100 mg QD, N=42): 0
- Peak titer group ≥100-<1000, n subjects ([1]; 100 mg QD, N=42): 0
- Peak titer group ≥1000, n subjects ([1]; 100 mg QD, N=42): 0
- Positive at baseline: Baseline titers 1:50, n subjects ([1]; 100 mg QD, N=42): 0
- Treatment-boosted (footnote c): Baseline titers 1:50, n subjects ([1]; 100 mg QD, N=42): 0
- Treatment-emergent: Peak titers 1:50, n subjects ([1]; 100 mg QD, N=42): 3
- Subjects positive for treatment-emergent anti-peptide antibodies at any time, % ([1]; 100 mg QD, N=42): (7.1%)
- Subjects negative for treatment-emergent anti-peptide antibodies, % ([1]; 100 mg QD, N=42): 92.9%
- Subjects positive for treatment-emergent anti-peptide antibodies, % ([1]; 100 mg QD, N=42): 7.1%
- Participants positive for ADA prior to the first dose (baseline) ([1]; 3 of 209, all 50 mg QD group): 1.4%
- Footnote d group: Baseline titers 1:50, n subjects ([1]; Combined doses, N=209): 3
- Peak titer group <50, n subjects ([1]; Combined doses, N=209): 8
- Peak titer group >50-<100, n subjects ([1]; Combined doses, N=209): 0
- Peak titer group ≥100-<1000, n subjects ([1]; Combined doses, N=209): 0
- Peak titer group ≥1000, n subjects ([1]; Combined doses, N=209): 0
- Positive at baseline: Baseline titers 1:50, n subjects ([1]; Combined doses, N=209): 3
- Subjects positive at baseline who were treatment-boosted for antibodies (footnote d: titers did not increase 2-fold), % ([1]; Combined doses, N=209): (1.4%)
- Subjects positive for anti-peptide antibodies at baseline, % ([1]; Combined doses, N=209): (1.4%)
- Treatment-boosted (footnote c): Baseline titers 1:50, n subjects ([1]; Combined doses, N=209): 0
- Treatment-emergent: Peak titers 1:50, n subjects ([1]; Combined doses, N=209): 8
- Subjects positive for treatment-emergent anti-peptide antibodies at any time, % ([1]; Combined doses, N=209): (3.8%)
- Subjects negative for treatment-emergent anti-peptide antibodies, % ([1]; Combined doses, N=209): (96.2%)
- Subjects positive for treatment-emergent anti-peptide antibodies, % ([1]; Combined doses, N=209): (3.8%)
